Tests used:
Carbonic anhydrase 1 = Carbonic anhydrase 1 (Homo sapiens, UniProt P00915); experiment: Inhibition of human carbonic anhydrase 1 by Stopped-Flow CO2 Hydrase assay
Carbonic anhydrase 2 = Carbonic anhydrase 2 (Homo sapiens, UniProt P00918); experiment: Inhibition of human carbonic anhydrase 2 by Stopped-Flow CO2 Hydrase assay
Carbonic anhydrase 9 = Carbonic anhydrase 9 (Homo sapiens, UniProt Q16790)
Carbonic anhydrase 12 = Carbonic anhydrase 12 (Homo sapiens, UniProt O43570)
Sequence of Carbonic anhydrase 12 (O43570 whole entry): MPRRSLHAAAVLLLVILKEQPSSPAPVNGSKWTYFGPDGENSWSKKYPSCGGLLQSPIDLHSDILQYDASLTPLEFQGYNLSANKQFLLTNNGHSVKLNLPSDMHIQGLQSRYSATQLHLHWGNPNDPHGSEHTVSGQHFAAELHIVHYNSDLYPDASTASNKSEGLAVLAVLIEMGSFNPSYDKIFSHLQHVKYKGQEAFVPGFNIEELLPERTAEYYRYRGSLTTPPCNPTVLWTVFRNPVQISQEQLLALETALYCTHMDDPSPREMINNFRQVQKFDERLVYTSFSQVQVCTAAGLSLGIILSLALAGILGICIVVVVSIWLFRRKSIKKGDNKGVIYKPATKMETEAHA

Sequence of Carbonic anhydrase 1 (P00915 whole entry): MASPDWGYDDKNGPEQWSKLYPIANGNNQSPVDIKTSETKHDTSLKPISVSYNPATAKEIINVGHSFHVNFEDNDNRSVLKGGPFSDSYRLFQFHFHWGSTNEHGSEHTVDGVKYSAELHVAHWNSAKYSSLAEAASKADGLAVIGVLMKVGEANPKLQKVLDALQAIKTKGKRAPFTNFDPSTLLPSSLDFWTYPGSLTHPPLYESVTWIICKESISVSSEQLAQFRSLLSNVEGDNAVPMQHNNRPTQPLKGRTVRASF

Row | Ki (Carbonic anhydrase 1) [µM] | Ki (Carbonic anhydrase 2) [µM] | Ki (Carbonic anhydrase 9) [µM] | Structure (SMILES) | Ki (Carbonic anhydrase 12) [µM]
1 | > 200 | > 100 | 0.008 | O=c1ccc2ccc(OCc3cn(-c4ccccc4)nn3)cc2o1 | –
2 | – | > 100 | – | C=CCOc1ccc2ccc(=S)oc2c1 | –
3 | – | 285 | – | Oc1ccc2oc(=S)ccc2c1 | –
4 | > 100 | > 100 | – | O=c1ccc2ccccc2s1 | –
5 | – | > 100 | – | C=CCOc1cc(=S)oc2ccccc12 | –
6 | > 100 | > 100 | 6.7 | S=c1ccc2ccccc2o1 | –
7 | > 100 | > 100 | 0.19 | O=c1ccc2cc(O)ccc2o1 [6-HYDROXYCOUMARIN] | 0.68
8 | – | > 100 | – | C=CCOc1ccc2oc(=O)ccc2c1 | –
9 | > 200 | > 100 | 0.004 | S=c1ccc2ccc(OCc3cn(-c4ccccc4)nn3)cc2o1 | –
10 | 72 | > 100 | – | C#CCOc1ccc2ccc(=O)oc2c1 | –
11 | – | > 100 | – | C=CCOc1ccc2oc(=S)ccc2c1 | –
12 | – | > 100 | – | C=CCOc1ccc2ccc(=O)oc2c1 [7-ALLYLOXYCOUMARIN] | –
13 | > 100 | > 100 | – | S=c1ccc2ccccc2s1 | –
14 | 950 | > 100 | 41.6 | C#CCOc1ccc2ccc(=S)oc2c1 | –
15 | – | > 100 | – | Oc1ccc2ccc(=S)oc2c1 | –
16 | – | > 100 | – | C=CCOc1cc(=O)oc2ccccc12 | –

Row | Structure (SMILES) | Ki (Carbonic anhydrase 1) [µM] | Ki (Carbonic anhydrase 2) [µM] | Ki (Carbonic anhydrase 9) [µM] | Ki (Carbonic anhydrase 12) [µM]
17 | CC(C)(C)[Si](C)(C)Oc1ccc2oc(=S)ccc2c1 | – | > 100 | – | –
18 | O=c1cc(O)c2ccccc2o1 [4-HYDROXYCOUMARINS] | 95 | > 100 | 0.41 | 6.3
19 | CC(C)(C)[Si](C)(C)Oc1ccc2oc(=O)ccc2c1 | – | > 100 | – | –
20 | CC(C)(C)[Si](C)(C)Oc1ccc2ccc(=O)oc2c1 | – | > 100 | – | –
21 | CC(C)(C)[Si](C)(C)Oc1ccc2ccc(=S)oc2c1 | – | > 100 | – | –
22 | C#CCCCOc1ccc2ccc(=S)oc2c1 | > 200 | > 100 | 0.22 | –
23 | C#CCCCOc1ccc2ccc(=O)oc2c1 | 124 | > 100 | 0.83 | 0.37
